Laboratory results taken from PubChem BioAssay (NCI).
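In this assay, cells in 96-well plates receive the compound at five concentrations for 48 hours. Endpoints are linearly interpolated between the surrounding concentrations. At the GI50, growth is halved. Definition used: TGI = concentration required for complete inhibition of growth.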

Columns and labels:
Assay in all cases: NCI anticancer screen, dose series, 48 h
786-0 renal = test system: 786-0 renal
MDA-N = test system: MDA-N
HCT-116 colon = test system: HCT-116 colon
HS 578T breast = test system: HS 578T breast
EKVX NSCLC = test system: EKVX NSCLC
SN12C renal = test system: SN12C renal
HOP-62 NSCLC = test system: HOP-62 NSCLC
KM12 colon = test system: KM12 colon
OVCAR-8 ovarian = test system: OVCAR-8 ovarian
MCF7 breast = test system: MCF7 breast
PC-3 prostate = test system: PC-3 prostate
RPMI-8226 leukemia = test system: RPMI-8226 leukemia
MALME-3M melanoma = test system: MALME-3M melanoma
SW-620 colon = test system: SW-620 colon

| Compound | TGI (786-0 renal) [µM] | TGI (MDA-N) [µM] | TGI (HCT-116 colon) [µM] | TGI (HS 578T breast) [µM] | TGI (EKVX NSCLC) [µM] | TGI (SN12C renal) [µM] | TGI (HOP-62 NSCLC) [µM] | TGI (KM12 colon) [µM] | TGI (OVCAR-8 ovarian) [µM] | TGI (MCF7 breast) [µM] | TGI (PC-3 prostate) [µM] | TGI (RPMI-8226 leukemia) [µM] | TGI (MALME-3M melanoma) [µM] | TGI (SW-620 colon) [µM] | GI50 (HS 578T breast) [µM] | GI50 (RPMI-8226 leukemia) [µM] | GI50 (OVCAR-8 ovarian) [µM] | GI50 (SW-620 colon) [µM] | GI50 (MCF7 breast) [µM] | GI50 (PC-3 prostate) [µM] |
| --- | --- | --- | --- | --- | --- | --- | --- | --- | --- | --- | --- | --- | --- | --- | --- | --- | --- | --- | --- | --- |
| CCOC(=O)c1c(NC(=S)Nc2ccc(C)cc2)sc2c1CCN(C)C2 | > 100 | > 100 | > 100 | > 100 | > 100 | > 100 | > 100 | > 100 | > 100 | > 100 | > 100 | > 100 | – | – | – | – | – | – | – | – |
| CNc1ccc2c(c1)Cc1ccccc1-2 | > 100 | – | > 100 | 91.5 | > 100 | > 100 | > 100 | 99.5 | 59.6 | > 100 | > 100 | > 100 | > 100 | > 100 | – | – | – | – | – | – |
| CCOC(=O)C(NC(=O)c1ccc(N=NN(C)C)cc1)C(C)C (configuration not stated) | > 100 | – | > 100 | – | > 100 | > 100 | > 100 | > 100 | > 100 | – | – | > 100 | > 100 | > 100 | – | – | – | – | – | – |
| C=C1CC=CC(C)(C)C1C/C=C(\C)C(O)CBr (configuration not stated) | > 100 | > 100 | > 100 | > 100 | > 100 | > 100 | > 100 | > 100 | > 100 | > 100 | > 100 | 66.8 | – | 97.4 | – | – | – | – | – | – |
| COc1cc(/C=C/c2cc(=O)cc(/C=C/c3ccc(O)c(OC)c3)o2)ccc1O | > 100 | – | > 100 | > 100 | > 100 | > 100 | > 63.8 | > 100 | > 100 | > 100 | > 100 | > 20.7 | > 100 | > 100 | – | – | – | – | – | – |
| COC(=O)/C=C\S/C(=C(/c1ccccc1)n1ccc(C(=O)OC)n1)c1ccccc1 | 36.6 | – | > 100 | 48 | > 100 | > 100 | 50.4 | > 100 | > 100 | 28.7 | 49.7 | > 100 | 43.9 | > 100 | – | – | – | – | – | – |
| COc1ccc(/C=N/Nc2nc3ccccc3c(=O)n2-c2ccccc2)c(OCc2ccccc2)c1 | > 100 | – | > 100 | > 100 | > 100 | > 100 | > 100 | > 100 | > 100 | > 100 | > 100 | > 100 | > 100 | > 100 | > 100 | > 100 | – | – | – | – |
| C/C(=N\Nc1nc2ccccc2s1)c1cccnn1 | > 100 | > 100 | 25.5 | 44.1 | 33.5 | > 100 | 14.5 | > 100 | 12.2 | > 100 | > 100 | > 100 | – | > 100 | – | – | – | – | – | – |
| O=C1c2c(c3c4ccc(Br)cc4oc3c3[nH]c4ccccc4c23)C(=O)N1O | – | – | – | – | – | – | – | – | > 100 | > 100 | > 100 | – | – | > 100 | – | – | 1.45 | 1.38 | 1.12 | 1.3 |
| NS(=O)(=O)c1nnc(NSc2ccc([N+](=O)[O-])cc2)s1 | > 100 | > 100 | > 100 | > 100 | > 100 | > 100 | > 100 | – | > 100 | > 100 | – | > 100 | > 100 | > 100 | – | – | – | – | – | – |
| c1ccc(-c2ccc(N=NN3CCCC3)cc2)cc1 | > 100 | > 100 | > 100 | > 100 | > 100 | > 100 | > 100 | > 100 | > 100 | > 100 | > 100 | > 100 | – | > 100 | – | – | – | – | – | – |
| CC1=NC(C)(C)N(O)C1(C)C | > 100 | > 100 | > 100 | – | > 100 | > 100 | > 100 | > 100 | > 100 | > 100 | > 100 | > 100 | > 100 | > 100 | – | – | – | – | – | – |
| CC1=C(C(=O)NNC(=O)CC#N)CC(C(=O)NNC(=O)CC#N)=C(C)N1 | > 100 | > 100 | > 100 | – | > 100 | > 100 | > 100 | > 100 | > 100 | > 100 | – | – | – | > 100 | – | – | – | – | – | – |
| COC(=O)[C@H]1C=C[C@H](OC2OC(COC(C)=O)C(OC(C)=O)C(OC(C)=O)C2OC(C)=O)n2c(=O)n(-c3ccccc3)c(=O)n21 (some centres not stated) | 14.7 | 18.5 | > 30.5 | 9.59 | 7.37 | 19.9 | 21.1 | 25.1 | 26.4 | – | 22.6 | 5.04 | – | 5.68 | – | – | – | – | – | – |
| Cc1cc2c(cc1Cl)SC(NNc1cnc3ccccc3n1)=NS2(=O)=O | > 100 | > 100 | > 100 | > 100 | > 100 | > 100 | > 100 | > 100 | > 100 | – | > 100 | – | > 100 | > 100 | – | – | – | – | – | – |
| CN1c2ccccc2C(=O)NC12CCN(CC1COc3ccccc3O1)CC2 (configuration not stated) | > 100 | – | > 100 | > 100 | > 100 | – | > 100 | > 100 | > 100 | > 100 | – | > 100 | > 100 | > 100 | – | – | – | – | – | – |
| O=C(NN1C(=O)CSC1c1ccc(Cl)c(Cl)c1)c1ccncc1 (configuration not stated) | – | – | – | – | > 100 | > 100 | – | > 100 | > 100 | – | – | > 100 | > 100 | > 100 | – | – | – | – | – | – |
| Cc1ccc(-n2cc(-c3ccc(Cl)cc3)c3c2N=CN2NC(c4ccco4)=NC32)cc1 (configuration not stated) | 17.4 | > 100 | 31.8 | 7.16 | > 100 | > 100 | 24 | – | 27.5 | > 100 | > 100 | – | > 100 | > 100 | – | – | – | – | – | – |
